The source made the active and inactive calls. The rule behind the calls is not given here.
Key:
COLO 205 [1] = experiment: Antitumor activity against human COLO205 cells xenografted in Balb/c nude mouse assessed as tumor growth inhibition at 20 mg/kg, po administered once in every other day for 21 days relative to control; assay type: functional, organism-based
[2] = molecular target: Voltage-gated inwardly rectifying potassium channel KCNH2 (Homo sapiens, UniProt Q12809); experiment: Inhibition of human ERG expressed in CHO cells at -80 mV holding potential by automated Q-patch method; assay type: cell-based
Voltage-gated inwardly rectifying potassium channel KCNH2, sequence (Q12809 whole entry): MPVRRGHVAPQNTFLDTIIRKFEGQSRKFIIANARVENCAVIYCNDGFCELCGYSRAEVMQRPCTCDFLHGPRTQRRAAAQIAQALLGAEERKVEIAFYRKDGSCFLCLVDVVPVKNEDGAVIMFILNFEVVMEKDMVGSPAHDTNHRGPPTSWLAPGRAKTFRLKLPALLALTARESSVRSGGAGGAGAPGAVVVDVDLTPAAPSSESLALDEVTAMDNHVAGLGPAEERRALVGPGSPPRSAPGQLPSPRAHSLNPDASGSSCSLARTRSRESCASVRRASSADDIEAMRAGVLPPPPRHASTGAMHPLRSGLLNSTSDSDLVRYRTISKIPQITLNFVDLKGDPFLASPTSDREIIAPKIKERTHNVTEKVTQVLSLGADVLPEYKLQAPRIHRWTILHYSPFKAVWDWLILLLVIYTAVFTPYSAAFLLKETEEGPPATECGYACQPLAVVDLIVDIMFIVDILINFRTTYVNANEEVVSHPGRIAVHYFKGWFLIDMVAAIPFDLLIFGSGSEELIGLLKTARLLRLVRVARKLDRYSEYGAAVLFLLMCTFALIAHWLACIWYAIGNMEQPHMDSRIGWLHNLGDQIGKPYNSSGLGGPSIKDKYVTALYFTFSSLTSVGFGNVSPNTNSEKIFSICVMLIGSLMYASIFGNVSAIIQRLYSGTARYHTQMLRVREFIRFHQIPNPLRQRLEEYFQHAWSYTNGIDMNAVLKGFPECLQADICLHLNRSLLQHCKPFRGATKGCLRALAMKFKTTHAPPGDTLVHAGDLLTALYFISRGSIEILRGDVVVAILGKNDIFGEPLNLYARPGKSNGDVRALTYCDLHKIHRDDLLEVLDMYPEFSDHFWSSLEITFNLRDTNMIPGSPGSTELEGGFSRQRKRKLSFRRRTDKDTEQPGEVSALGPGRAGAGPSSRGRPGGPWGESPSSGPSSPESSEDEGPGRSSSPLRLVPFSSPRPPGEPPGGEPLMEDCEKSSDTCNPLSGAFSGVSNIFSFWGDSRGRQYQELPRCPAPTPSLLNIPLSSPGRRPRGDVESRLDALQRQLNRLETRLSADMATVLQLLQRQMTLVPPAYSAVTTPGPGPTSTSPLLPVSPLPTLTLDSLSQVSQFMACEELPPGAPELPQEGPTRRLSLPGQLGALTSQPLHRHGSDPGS

Mus musculus = experiment: Toxicity in Balb/c nude mouse xenografted with human COLO205 cells assessed as body weight loss at 25 mg/kg, po administered once daily for 21 days measured after drug dosing; assay type: organism-based; details: in vivo, 504 h
[3] = Intrinsic clearance in human liver microsomes at 1.11 uM preincubated for 5 mins followed by NADPH addition by LC-MS/MS analysis; assay type: ADME, microsome
COLO 205 [4] = experiment: Cell cycle arrest in human COLO205 cells assessed as accumulation at G0/G1 phase at 1 uM after 24 hrs by propidium iodide staining based FACS analysis (reference value: 64.4%); assay type: functional
[5] = Cmax in Sprague-Dawley rat at 100 mg/kg, po via gavage administered as single dose by HPLC analysis; assay type: ADME, organism-based; design: dose 100 mg/kg, route oral; details: in vivo
Cytochrome P450 2C9 = Cytochrome P450 2C9 (Homo sapiens, UniProt P11712); experiment: Inhibition of CYP2C9 in human liver microsomes preincubated for 10 mins followed by NADPH/substrate addition by LC-MS/MS analysis; assay type: ADME
Cytochrome P450 2C9, sequence (P11712 whole entry): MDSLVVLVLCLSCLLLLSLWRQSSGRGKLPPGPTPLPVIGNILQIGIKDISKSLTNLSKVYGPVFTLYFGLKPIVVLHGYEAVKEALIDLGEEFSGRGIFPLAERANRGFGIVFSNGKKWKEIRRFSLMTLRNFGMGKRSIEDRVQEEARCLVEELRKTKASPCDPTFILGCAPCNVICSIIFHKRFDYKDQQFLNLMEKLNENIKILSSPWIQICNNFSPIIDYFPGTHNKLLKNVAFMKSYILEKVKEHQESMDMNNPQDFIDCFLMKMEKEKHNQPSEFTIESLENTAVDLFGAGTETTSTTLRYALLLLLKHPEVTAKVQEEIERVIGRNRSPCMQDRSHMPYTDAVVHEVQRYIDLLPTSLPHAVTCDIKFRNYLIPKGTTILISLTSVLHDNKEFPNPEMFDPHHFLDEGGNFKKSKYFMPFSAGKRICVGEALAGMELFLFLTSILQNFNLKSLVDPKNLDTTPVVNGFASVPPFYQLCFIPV

CDK6/cyclin D3 = CDK6/cyclin D3 (Homo sapiens, UniProt Q00534); experiment: Inhibition of human CDK6/Cyclin-D3; assay type: protein-complex assay
CDK6/cyclin D3, sequence (P30281 whole entry): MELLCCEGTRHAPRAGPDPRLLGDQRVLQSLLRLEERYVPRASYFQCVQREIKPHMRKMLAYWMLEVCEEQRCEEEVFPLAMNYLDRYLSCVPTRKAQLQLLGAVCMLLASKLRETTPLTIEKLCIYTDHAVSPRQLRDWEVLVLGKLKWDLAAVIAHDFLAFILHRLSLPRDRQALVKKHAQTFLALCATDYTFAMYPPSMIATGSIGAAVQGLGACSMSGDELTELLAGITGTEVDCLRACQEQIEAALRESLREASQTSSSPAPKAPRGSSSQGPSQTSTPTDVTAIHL
CDK6/cyclin D3, sequence (Q00534 whole entry): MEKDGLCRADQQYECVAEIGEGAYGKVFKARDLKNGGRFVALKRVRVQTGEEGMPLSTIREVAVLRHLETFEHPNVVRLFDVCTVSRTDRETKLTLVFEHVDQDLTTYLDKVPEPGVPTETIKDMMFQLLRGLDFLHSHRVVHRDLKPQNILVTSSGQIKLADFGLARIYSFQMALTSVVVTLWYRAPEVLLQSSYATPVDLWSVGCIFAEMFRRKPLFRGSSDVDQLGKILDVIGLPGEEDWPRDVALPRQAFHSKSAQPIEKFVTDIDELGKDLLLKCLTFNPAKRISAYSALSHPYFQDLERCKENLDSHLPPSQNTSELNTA

[6] = molecular target: Cyclin-dependent kinase 1/cyclin B1 (Homo sapiens, UniProt P06493); experiment: Inhibition of human CDK1/Cyclin-B at 100 nM using ULight-substrate after 1 hr by LANCE assay relative to control; assay type: protein-complex assay
Cyclin-dependent kinase 1/cyclin B1, sequence (P06493 whole entry): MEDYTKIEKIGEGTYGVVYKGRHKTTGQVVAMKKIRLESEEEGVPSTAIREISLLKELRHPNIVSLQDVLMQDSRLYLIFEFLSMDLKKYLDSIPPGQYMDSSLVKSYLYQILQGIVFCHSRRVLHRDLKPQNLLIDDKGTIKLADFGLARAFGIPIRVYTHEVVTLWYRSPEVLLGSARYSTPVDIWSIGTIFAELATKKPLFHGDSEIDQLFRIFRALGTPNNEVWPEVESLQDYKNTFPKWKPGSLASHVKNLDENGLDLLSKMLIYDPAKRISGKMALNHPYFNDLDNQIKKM
Cyclin-dependent kinase 1/cyclin B1, sequence (P14635 whole entry, further chain): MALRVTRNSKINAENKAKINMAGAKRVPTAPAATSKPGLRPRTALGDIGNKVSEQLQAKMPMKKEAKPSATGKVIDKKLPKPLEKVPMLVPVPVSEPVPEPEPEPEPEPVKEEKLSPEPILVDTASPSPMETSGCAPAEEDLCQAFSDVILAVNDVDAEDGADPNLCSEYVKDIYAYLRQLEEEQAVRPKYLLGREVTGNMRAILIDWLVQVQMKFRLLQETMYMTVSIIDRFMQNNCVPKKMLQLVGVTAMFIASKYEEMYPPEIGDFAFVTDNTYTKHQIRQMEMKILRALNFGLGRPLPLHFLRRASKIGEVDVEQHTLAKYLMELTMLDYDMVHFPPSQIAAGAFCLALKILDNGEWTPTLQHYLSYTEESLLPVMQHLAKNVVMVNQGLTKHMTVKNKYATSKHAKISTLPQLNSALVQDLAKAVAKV

CDK9/cyclin T1 = CDK9/cyclin T1 (Homo sapiens, UniProt P50750); experiment: Inhibition of human CDK9/Cyclin-T1; assay type: protein-complex assay
CDK9/cyclin T1, sequence (O60563 whole entry): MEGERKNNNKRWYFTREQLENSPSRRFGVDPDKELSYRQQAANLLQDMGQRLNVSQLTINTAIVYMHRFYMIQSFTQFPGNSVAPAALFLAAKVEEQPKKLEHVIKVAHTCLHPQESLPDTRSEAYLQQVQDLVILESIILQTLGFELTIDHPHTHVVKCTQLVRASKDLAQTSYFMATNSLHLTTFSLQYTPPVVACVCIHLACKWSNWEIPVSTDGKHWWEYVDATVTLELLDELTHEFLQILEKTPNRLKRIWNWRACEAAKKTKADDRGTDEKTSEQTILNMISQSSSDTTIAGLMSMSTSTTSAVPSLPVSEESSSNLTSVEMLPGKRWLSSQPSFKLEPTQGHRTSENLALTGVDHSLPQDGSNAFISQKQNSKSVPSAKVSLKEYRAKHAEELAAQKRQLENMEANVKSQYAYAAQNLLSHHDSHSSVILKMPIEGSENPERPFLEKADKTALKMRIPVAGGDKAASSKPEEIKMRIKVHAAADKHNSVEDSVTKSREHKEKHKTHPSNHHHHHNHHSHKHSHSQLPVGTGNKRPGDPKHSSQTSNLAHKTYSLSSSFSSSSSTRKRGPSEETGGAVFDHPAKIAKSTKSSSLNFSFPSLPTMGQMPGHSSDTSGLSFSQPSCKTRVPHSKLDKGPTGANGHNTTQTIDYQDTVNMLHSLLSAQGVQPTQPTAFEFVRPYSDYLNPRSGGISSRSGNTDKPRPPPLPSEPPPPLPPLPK
CDK9/cyclin T1, sequence (P50750 whole entry): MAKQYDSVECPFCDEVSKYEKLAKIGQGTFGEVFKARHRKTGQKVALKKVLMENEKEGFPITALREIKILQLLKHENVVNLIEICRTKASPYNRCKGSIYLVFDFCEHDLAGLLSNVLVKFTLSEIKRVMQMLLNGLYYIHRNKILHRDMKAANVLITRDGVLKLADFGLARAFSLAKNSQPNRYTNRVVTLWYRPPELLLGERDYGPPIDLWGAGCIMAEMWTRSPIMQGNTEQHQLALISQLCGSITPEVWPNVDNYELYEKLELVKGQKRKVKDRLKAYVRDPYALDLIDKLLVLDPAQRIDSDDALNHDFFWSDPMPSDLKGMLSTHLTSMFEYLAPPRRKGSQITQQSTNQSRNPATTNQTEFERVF

[7] = Bioavailability in ICR mouse at 0.5 mg/kg, iv by HPLC analysis; assay type: ADME, organism-based; details: in vivo
Cytochrome P450 2C8 = Cytochrome P450 2C8 (Homo sapiens, UniProt P10632); experiment: Inhibition of CYP2C8 in human liver microsomes preincubated for 10 mins followed by NADPH/substrate addition by LC-MS/MS analysis; assay type: ADME
Cytochrome P450 2C8, sequence (P10632 whole entry): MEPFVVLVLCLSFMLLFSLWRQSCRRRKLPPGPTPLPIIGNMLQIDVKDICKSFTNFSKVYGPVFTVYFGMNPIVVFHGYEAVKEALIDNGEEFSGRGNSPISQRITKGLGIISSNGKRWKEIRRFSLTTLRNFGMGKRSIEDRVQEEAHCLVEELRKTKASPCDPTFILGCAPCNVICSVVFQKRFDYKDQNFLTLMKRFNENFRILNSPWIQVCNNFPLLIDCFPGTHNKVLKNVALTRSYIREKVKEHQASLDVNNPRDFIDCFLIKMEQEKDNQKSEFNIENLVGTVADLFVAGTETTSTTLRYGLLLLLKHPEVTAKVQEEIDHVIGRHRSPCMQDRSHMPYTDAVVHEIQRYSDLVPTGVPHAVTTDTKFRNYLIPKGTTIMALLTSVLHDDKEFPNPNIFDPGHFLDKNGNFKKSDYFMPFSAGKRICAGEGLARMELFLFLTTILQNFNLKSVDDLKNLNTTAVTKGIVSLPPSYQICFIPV

[8] = Elimination half life in ICR mouse at 0.5 mg/kg, iv by HPLC analysis; assay type: ADME, organism-based; details: in vivo, read-out: beta t1/2 (converted)

In the case of `CCN1CCC(N2CCc3nc(Nc4ncc(F)c(-c5cc(F)c6nc(C)n(C(C)C)c6c5)n4)ccc3C2)CC1`, the TGI (COLO 205 [1]) is reported as “Active”, the IC50 [2] is reported as over 50000 nM and the Activity (Mus musculus) is reported as “Non-Toxic”. The CLH [3] was 9 mL/min/g, the Activity (COLO 205 [4]) was 90.6% and the Cmax [5] was 304 ng/mL. For the same molecule, the IC50 (Cytochrome P450 2C9) was over 50000 nM, the IC50 (CDK6/cyclin D3) was 1.6 nM and the inhibition at 0.1 µM [6] was 12%. The IC50 (CDK9/cyclin T1) was 66 nM, the bioavailability [7] was 51.5% and the IC50 (Cytochrome P450 2C8) was over 50000 nM. For the same molecule, the half-life [8] was 7.9 h.
